Laboratory results as given in patent US9919019B2, “Use of essential oil of oregano or of rosewood, or constituents thereof, in the cosmetic treatment of keratoses” (L'Oreal, priority 2010, dated 2018).

Test system: A431 cells
Assay: Annexin V/propidium iodide (AV/PI) apoptosis test in A431 cells
Format: cell-based, human
Conditions: for death by targeted apoptosis of mutated cancer cells / cytotoxic efficacy compared with complex essential oils: 12 h; for death by targeted apoptosis of mutated cancer cells: A431 versus HEK001, concentrations equal to those present in the EO treatments (linalool 320 nL/mL, carvacrol 60 nL/mL, thymol 30 nL/mL); for cytotoxic efficacy compared with complex essential oils: equivalent dose; for apoptotic A431 cells: 12 h of treatment
Experimental: These three molecules were incubated for 12 h with non-mutated immortalized keratinocytes (HEK001) and mutated cancerous keratinocytes (A431). The percentage of cells in apoptosis was measured by the annexin V/propidium iodide test. The concentrations of the molecules used were equal to those present during the treatments with the essential oils. Example: the concentration of linalool used here represents the equivalent of 80% of linalool present in the essential oil of rosewood.
Thirty six hours before the treatment, the cells were distributed into a 96-well plate (5×10^5 cells/mL).
EO treatment solution: the essential oils were diluted to 1/10th a first time in 100% ethanol. Next, a second dilution was carried out in culture medium in order to obtain the desired concentrations.
The AV/PI test can be used to detect this event because of the affinity of the protein annexin V for phosphatidyl-serine. Propidium iodide, which targets DNA, can be used to distinguish early apoptotic cells from cells in late apoptosis and/or in necrosis.
After the desired treatment time, the medium was eliminated, the cells were harvested (by trypsinization), centrifuged and rinsed in 4 mL of PBS 1×. Tagging was carried out following the instructions of the manufacturer (Kit Vybrant, Molecular Probe). The cells were rapidly taken up in 100 μl of tagging buffer, to which 6 μl of annexin V and 3 μg/mL of propidium iodide per sample was added. The cells were then incubated for 30 min in the dark (at ambient temperature). Four hundred μL of tagging buffer was added before measuring the fluorescence of the annexin V (at 530 nm) and of the propidium iodide (at 610 nm).

Row | SMILES | death by targeted apoptosis of mutated cancer cells | cytotoxic efficacy compared with complex essential oils | apoptotic A431 cells (carvacrol 60 nL/mL) | apoptotic A431 cells (thymol 30 nL/mL)
1 | Cc1ccc(C(C)C)cc1O [carvacrol] | qualitatively conserved | lower than with complex essential oils | ~25% | 
2 | Cc1ccc(C(C)C)c(O)c1 [thymol] | qualitatively conserved | lower than with complex essential oils |  | approximately 15%
3 | C=CC(C)(O)CCC=C(C)C (centres unmarked) [linalool] | qualitatively conserved | lower than with complex essential oils |  | 
